Test system: HCC 1806 cells
Test: Cell proliferation inhibitory effect on human breast cancer cell line (crystal violet, 72 hours)
Type: cell-based
Conditions: read-out: Cell growth suppression IC50
Procedure: Human derived breast cancer cell line HCC 1806 cells were daily passaged at a cell density not exceeding 80% in ATCC recommended Roswell Park Memorial Institute medium (RPMI-1640) containing 10% fetal bovine serum (FBS). In order to start the test of cell proliferation inhibitory activity, HCC 1806 cells were suspended in the above medium, after seeing at 180 μl in each well of a 96-well flat bottom plate so that the number of cells per well was 2,000, the cells were cultured at 37° C. for 1 day in an incubator containing 5% carbon dioxide gas. On the next day, the test compound was dissolved in DMSO, and 20 μl of a drug additive solution diluted serially with distilled water to 10 times of the final concentration was added to each well of the culture plate of the cells, and the cells were cultured at 37° C. for 72 hours in an incubator containing 5% carbon dioxide gas. […] 100 μL of an extract solution (0.1 N NaH2PO4: 100% ethanol=1:1) was added to each well and mixed, and the mixture was measured at a wavelength of 540 nm using a plate reader (MTP-450 manufactured by Corona Electric Co., Ltd.). […]
T: Absorbance of well to which test compound was added
C: Absorbance of wells to which no test compound was added
B: Absorbance of wells to which no cell suspension was added

Cc1ccc(F)c([C@@H](C)[C@H](NS(=O)(=O)c2ccc(C(F)(F)F)c3c2OCCC3(C)O)c2n[nH]c(=O)o2)c1C (single isomer, unassigned) [Example 225A]
IC50: 600 nM

Source: patent US11634395B2, “Sulfonamide compound or salt thereof” (Taiho Pharmaceutical Co., Ltd., priority 2016, dated 2023)
